# Results: PubChem BioAssay (NCI)
#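 Where inhibition never reached the appropriate level, the endpoint shown equals the highest concentration tested. Otherwise, values were interpolated linearly from a five-concentration, 48-hour dose response in 96-well plates. At the GI50, growth is halved. TGI is the concentration that stops growth completely.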
# What was measured:
# Assay in all cases: NCI-60 cell line screen, 48 h
# MOLT-4 leukemia = system: MOLT-4 leukemia
# NCI-H226 lung = system: NCI-H226 lung
# NCI-H23 lung = system: NCI-H23 lung
# NCI-H460 lung = system: NCI-H460 lung
# NCI-H522 lung = system: NCI-H522 lung
# NCI/ADR-RES ovarian = system: NCI/ADR-RES ovarian
# OVCAR-3 ovarian = system: OVCAR-3 ovarian
# OVCAR-4 ovarian = system: OVCAR-4 ovarian
# OVCAR-8 ovarian = system: OVCAR-8 ovarian
# RPMI-8226 leukemia = system: RPMI-8226 leukemia
# SF-268 CNS = system: SF-268 CNS
# SF-295 CNS = system: SF-295 CNS
# SF-539 CNS = system: SF-539 CNS
# SK-MEL-2 melanoma = system: SK-MEL-2 melanoma
# SK-MEL-28 melanoma = system: SK-MEL-28 melanoma
# SK-MEL-5 melanoma = system: SK-MEL-5 melanoma
# SK-OV-3 ovarian = system: SK-OV-3 ovarian
# SN12C renal = system: SN12C renal
# SNB-19 CNS = system: SNB-19 CNS
# SNB-75 CNS = system: SNB-75 CNS
# SR leukemia = system: SR leukemia
# SW-620 colon = system: SW-620 colon
# T-47D breast = system: T-47D breast
# TK-10 renal = system: TK-10 renal
# U251 CNS = system: U251 CNS
# UACC-257 melanoma = system: UACC-257 melanoma
# UACC-62 melanoma = system: UACC-62 melanoma
# UO-31 renal = system: UO-31 renal
compound,measurement,setting,value
O=C(/C=C/c1cccc(O)c1)c1cccc(-n2cc(-c3ccc(Cl)cc3)[nH]c2=O)c1,TGI,MOLT-4 leukemia,6.31 µM
same,GI50,NCI-H226 lung,2.31 µM
same,TGI,NCI-H226 lung,5.5 µM
same,GI50,NCI-H23 lung,2.78 µM
same,TGI,NCI-H23 lung,10.6 µM
same,GI50,NCI-H460 lung,2.41 µM
same,TGI,NCI-H460 lung,5.99 µM
same,GI50,NCI-H522 lung,1.65 µM
same,TGI,NCI-H522 lung,4.36 µM
same,GI50,NCI/ADR-RES ovarian,2.2 µM
same,TGI,NCI/ADR-RES ovarian,5.96 µM
same,GI50,OVCAR-3 ovarian,1.56 µM
same,TGI,OVCAR-3 ovarian,3.44 µM
same,GI50,OVCAR-4 ovarian,2.21 µM
same,TGI,OVCAR-4 ovarian,8.96 µM
same,GI50,OVCAR-8 ovarian,0.998 µM
same,TGI,OVCAR-8 ovarian,> 100 µM
same,GI50,RPMI-8226 leukemia,1.55 µM
same,TGI,RPMI-8226 leukemia,4.64 µM
same,GI50,SF-268 CNS,1.78 µM
same,TGI,SF-268 CNS,3.94 µM
same,GI50,SF-295 CNS,1.79 µM
same,TGI,SF-295 CNS,3.88 µM
same,GI50,SF-539 CNS,1.68 µM
same,TGI,SF-539 CNS,3.22 µM
same,GI50,SK-MEL-2 melanoma,2.07 µM
same,TGI,SK-MEL-2 melanoma,4.67 µM
same,GI50,SK-MEL-28 melanoma,3.64 µM
same,TGI,SK-MEL-28 melanoma,15.9 µM
same,GI50,SK-MEL-5 melanoma,1.53 µM
same,TGI,SK-MEL-5 melanoma,3.36 µM
same,GI50,SK-OV-3 ovarian,4.22 µM
same,TGI,SK-OV-3 ovarian,17.2 µM
same,GI50,SN12C renal,1.95 µM
same,TGI,SN12C renal,5.93 µM
same,GI50,SNB-19 CNS,1.92 µM
same,TGI,SNB-19 CNS,4.37 µM
same,GI50,SNB-75 CNS,1.46 µM
same,TGI,SNB-75 CNS,3.04 µM
same,GI50,SR leukemia,0.217 µM
same,TGI,SR leukemia,1.07 µM
same,GI50,SW-620 colon,1.62 µM
same,TGI,SW-620 colon,4.74 µM
same,GI50,T-47D breast,1.92 µM
same,TGI,T-47D breast,6.03 µM
same,GI50,TK-10 renal,2.83 µM
same,TGI,TK-10 renal,9.13 µM
same,GI50,U251 CNS,0.588 µM
same,TGI,U251 CNS,2.15 µM
same,GI50,UACC-257 melanoma,4.07 µM
same,TGI,UACC-257 melanoma,26.3 µM
same,GI50,UACC-62 melanoma,1.85 µM
same,TGI,UACC-62 melanoma,4.27 µM
same,GI50,UO-31 renal,0.558 µM
same,TGI,UO-31 renal,3.46 µM
